From patent US9970848B2, “Method for evaluating state of horny layer and method for evaluating horny layer improvement effect of cosmetic preparation” (Shiseido Company, Ltd., priority 2013, dated 2018)

Tested on: stratum corneum sheets obtained from the forearm flexor region
Assay: Screening of candidate cosmetics for ameliorating effect on the stratum corneum (fluorescein staining after wetting and drying)
Conditions: 3% aqueous solution, 1 h immersion, dried 2 hours at 0% humidity, room temperature; 0.2 w/v % uranin staining; 12 visual fields averaged
Procedure: Stratum corneum sheets obtained from the forearm flexor region using stratum corneum release tape were affixed to glass slides, and each affixed stratum corneum sheet was immersed for one hour in water (two sheets) as a control and in a 3% erythritol aqueous solution (ER) and a 3% AQUAINPOOL 1407 aqueous solution (AQ), as candidate cosmetics. Next, one of the water-wetted stratum corneum sheets was dried at 0% humidity, room temperature, while the other was dried for 2 hours at 90% humidity, room temperature. The stratum corneum sheets wetted with ER and AQ were dried for 2 hours at 0% humidity, room temperature. […] The taken image was corrected for distortion and digitized using analysis software, and the fluorescent brightness was calculated.

## OC[C@@H](O)[C@@H](O)CO [ER, erythritol]
  fluorescent brightness compared with the water-wetted stratum corneum sheet (dried at 0% humidity): about the same
